According to patent US20220235064A1 (WELLMARKER BIO CO., LTD., priority 2019, published 2022):

Columns and labels:
RON tyrosine kinase = target: T1, RON tyrosine kinase (Homo sapiens, UniProt Q04912); assay: Enzyme inhibitory activity against RON tyrosine kinase (TR-FRET); format: biochemical; settings: RON (Carna Bioscience)
T1 construct: purchased Carna Bioscience
Experimental: Experimental Example 1: Measurement of Enzyme Inhibitory Activity Against RON Tyrosine Kinase
To measure enzyme inhibitory activity of the example compounds against RON, IC50 values of the compounds were measured using fluorescence resonance energy transfer (FRET).
Specifically, first, RON (Carna Bioscience) was diluted in a kinase assay buffer (50 mM HEPES pH 7.5, 1 mM EGTA, 10 mM MgCl2, 2 mM DTT, and 0.01% Tween-20) to be at a concentration (0.4 nM) that is twice the final reaction concentration. The dilute was added to a 384-well-plate at 5 μl per well. Each of the example compounds was prepared at a concentration of 1 mM in 100% DMSO and diluted 8 times in a stepwise manner through 10-fold dilution. Each compound was diluted in a kinase assay buffer to be at a concentration that is 4 times the final reaction concentration. The dilute was added to a 384-well-plate at 2.5 μl per well, and incubation was performed at room temperature for 15 minutes.
Thereafter, an ATP solution (Sigma Aldrich) prepared at a concentration of 0.25 M was diluted in a kinase assay buffer to be at a concentration (60 μM) that is 4 times the final reaction concentration. Dilution of a tyrosine peptide substrate (Perkin-Elmer) was performed therein to be at a concentration (400 nM) that is 4 times the final reaction concentration. The dilute was added to a 384-well-plate at 2.5 µl per well. Reaction was allowed to proceed for 60 minutes by incubating the 384-well-plate at room temperature. Thereafter, EDTA (Sigma Aldrich) was diluted in a TR-FRET detection buffer (Perkin-Elmer) to be at a concentration (20 mM) that is twice the final reaction concentration. Dilution of a Europium-containing phosphotyrosine antibody (Perkin-Elmer) was performed in the diluted EDTA solution to be at a concentration (4 nM) that is twice the final reaction concentration, so that a stop solution for RON reaction was prepared.
The stop solution was added to the 384-well-plate at 10 μl per well to quench the reaction, and incubation was performed at room temperature for 60 minutes. Then, the 384-well-plate was read on a Victor X5 (Perkin-Elmer) plate reader. Here, the excitation wavelength was 340 nm, and the emission wavelengths were 620 nm and 665 nm. An IC50 value of the compound was derived using GraphPad Prism 5 program, in which the IC50 was derived by expressing emission energy at the wavelength of 665 nm as a function of the compound concentration.

[1] = test system: cancer cell line KM12C, in which RON is activated; assay: Cell growth inhibitory ability in RON-activated cancer cell line (MTS); format: cell-based; settings: Homo sapiens, 48 hours, absorbance 490 nm
Experimental: Experimental Example 2: Identification of Cell Growth Inhibitory Ability of Example Compounds in RON-Activated Cancer Cell Line
The cancer cell line KM12C (80015, KCLB, MEM+1K° FBS), in which RON is activated, was treated with each of the example compounds at a concentration of 10 μM, and then reaction was allowed to proceed for 48 hours. 24 hours after completion of the reaction, 20 μl of MTS solution (CellTiter 96 Aqueous One Solution Cell Proliferation Assay, product number: G3581, Promega) was added to each well, and then incubation was performed at a temperature of 37° C. in 50 CO2 incubator for 4 hours. Then, an IC50 value of the compound was derived by measuring its absorbance value at a wavelength of 490 nm using a Victor X5 plate reader. Here, as a positive control, N-(4-(2-amino-3-chloropyridin-4-yloxy)-3-fluorophenyl)-4-ethoxy-1-(4-fluorophenyl)-2-oxo-1,2-dihydropyridine-3-carboxamide, which is the compound of Example 1 in WO 2008/058229 A1, was used.

T1 sequence (Q04912 25-1400): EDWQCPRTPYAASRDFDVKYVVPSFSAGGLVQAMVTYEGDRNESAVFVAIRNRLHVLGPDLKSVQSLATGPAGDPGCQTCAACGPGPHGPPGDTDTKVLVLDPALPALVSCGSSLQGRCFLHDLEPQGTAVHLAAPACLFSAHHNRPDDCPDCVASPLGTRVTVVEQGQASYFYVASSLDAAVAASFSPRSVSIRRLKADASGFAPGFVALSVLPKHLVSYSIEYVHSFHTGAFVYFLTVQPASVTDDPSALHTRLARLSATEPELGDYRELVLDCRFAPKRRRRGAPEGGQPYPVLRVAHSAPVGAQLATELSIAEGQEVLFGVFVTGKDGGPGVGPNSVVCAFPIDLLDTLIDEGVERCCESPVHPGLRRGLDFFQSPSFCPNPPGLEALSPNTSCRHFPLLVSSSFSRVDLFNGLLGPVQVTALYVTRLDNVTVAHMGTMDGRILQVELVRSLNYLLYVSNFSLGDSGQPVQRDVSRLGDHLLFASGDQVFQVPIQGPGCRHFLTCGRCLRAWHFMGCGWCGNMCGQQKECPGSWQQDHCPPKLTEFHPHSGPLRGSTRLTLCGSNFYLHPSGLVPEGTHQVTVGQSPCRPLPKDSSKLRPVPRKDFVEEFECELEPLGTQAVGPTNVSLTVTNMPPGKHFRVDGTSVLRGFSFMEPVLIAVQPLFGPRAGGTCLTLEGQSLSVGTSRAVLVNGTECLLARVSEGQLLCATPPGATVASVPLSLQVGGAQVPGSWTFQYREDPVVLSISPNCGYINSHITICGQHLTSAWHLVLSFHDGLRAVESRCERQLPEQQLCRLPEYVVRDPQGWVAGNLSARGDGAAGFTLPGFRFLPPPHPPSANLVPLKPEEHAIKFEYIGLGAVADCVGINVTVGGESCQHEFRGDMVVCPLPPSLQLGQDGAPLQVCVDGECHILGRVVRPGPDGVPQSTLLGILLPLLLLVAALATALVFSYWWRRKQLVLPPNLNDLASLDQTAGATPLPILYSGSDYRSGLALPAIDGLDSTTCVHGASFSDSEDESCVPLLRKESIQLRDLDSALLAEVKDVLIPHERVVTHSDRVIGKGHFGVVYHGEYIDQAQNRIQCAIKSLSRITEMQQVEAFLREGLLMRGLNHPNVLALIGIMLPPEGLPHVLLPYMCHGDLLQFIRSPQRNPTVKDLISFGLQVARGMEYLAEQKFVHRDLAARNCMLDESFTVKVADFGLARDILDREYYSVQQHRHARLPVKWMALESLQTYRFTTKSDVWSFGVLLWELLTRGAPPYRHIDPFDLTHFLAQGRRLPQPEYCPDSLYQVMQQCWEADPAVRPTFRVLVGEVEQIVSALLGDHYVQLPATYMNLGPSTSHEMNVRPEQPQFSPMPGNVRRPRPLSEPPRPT

Compound	IC50 (RON tyrosine kinase)	IC50 [1]
O=C(Nc1ccc(Oc2ccnc(NCCCN3CCOCC3)c2Cl)c(F)c1)c1c2c(cn(-c3ccc(F)cc3)c1=O)CCO2 [Example 62, N-(4-((3-Chloro-2-((3-morpholinopropyl)amino)pyridin-4-yl)oxy)-3-fluorophenyl)-5-(4-fluorophenyl)-6-oxo-2,3,5,6-tetrahydrofuro[3,2-c]pyridine-7-carboxamide]	12.3 nM	1670 nM
CN1CCC(Nc2cc(Oc3ccc(NC(=O)c4c5c(cn(-c6ccc(F)cc6)c4=O)CCO5)cc3F)ccn2)CC1 [Example 63, N-(3-Fluoro-4-((2-((1-methylpiperidin-4-yl)amino)pyridin-4-yl)oxy)phenyl)-5-(4-fluorophenyl)-6-oxo-2,3,5,6-tetrahydrofuro[3,2-c]pyridine-7-carboxamide]	20.6 nM	2280 nM
O=C(Nc1ccc(Oc2ncnc3[nH]ccc23)c(F)c1)c1c2c(cn(-c3ccc(F)cc3)c1=O)CCO2 [Example 71, N-(4-((7H-pyrrolo[2,3-d]pyrimidin-4-yl)oxy)-3-fluorophenyl)-5-(4-fluorophenyl)-6-oxo-2,3,5,6-tetrahydrofuro[3,2-c]pyridine-7-carboxamide]	8.24 nM	11 nM
O=C(Nc1ccc(Oc2ncnc3[nH]ncc23)c(F)c1)c1c2c(cn(-c3ccc(F)cc3)c1=O)CCO2 [Example 73, N-(4-((1H-pyrazolo[3,4-d]pyrimidin-4-yl)oxy)-3-fluorophenyl)-5-(4-fluorophenyl)-6-oxo-2,3,5,6-tetrahydrofuro[3,2-c]pyridine-7-carboxamide]	17.5 nM	8 nM
COc1cc2c(Oc3ccc(NC(=O)c4c5c(cn(-c6ccc(F)cc6)c4=O)CCC5)cc3F)ccnc2cc1OCCCN1CCOCC1 [Example 77, N-(3-Fluoro-4-((6-methoxy-7-(3-morpholinopropoxy)quinolin-4-yl)oxy)phenyl)-2-(4-fluorophenyl)-3-oxo-3,5,6,7-tetrahydro-2H-cyclopenta[c]pyridine-4-carboxamide]	9.32 nM	10 nM
O=C(Nc1ccc(Oc2ccnc3cc(OCCN4CCOCC4)c(Cl)cc23)c(F)c1)c1c2c(cn(-c3ccc(F)cc3)c1=O)CCO2 [Example 171, N-(4-((6-Chloro-7-(2-morpholinoethoxy)quinolin-4-yl)oxy)-3-fluorophenyl)-5-(4-fluorophenyl)-6-oxo-2,3,5,6-tetrahydrofuro[3,2-c]pyridine-7-carboxamide]	7.13 nM	8 nM
N#Cc1cc2c(Oc3ccc(NC(=O)c4c5c(cn(-c6ccc(F)cc6)c4=O)CCO5)cc3F)ccnc2cc1OCCCN1CCOCC1 [Example 174, N-(4-((6-Cyano-7-(3-morpholinopropoxy)quinolin-4-yl)oxy)-3-fluorophenyl)-5-(4-fluorophenyl)-6-oxo-2,3,5,6-tetrahydrofuro[3,2-c]pyridine-7-carboxamide]	1.61 nM	4 nM
COc1cc2nccc(Oc3ccc(NC(=O)c4c5c(cn(-c6ccc(F)cc6)c4=O)CCO5)cc3F)c2cc1OCCN1CCOCC1 [Example 175, N-(3-Fluoro-4-((7-methoxy-6-(2-morpholinoethoxy)quinolin-4-yl)oxy)phenyl)-5-(4-fluorophenyl)-6-oxo-2,3,5,6-tetrahydrofuro[3,2-c]pyridine-7-carboxamide]	1.24 nM	2 nM

Stronger by IC50 (RON tyrosine kinase), values ahead:

IC50 (RON tyrosine kinase)	IC50 [1]	Compound
1.03 nM	3 nM	COc1cc2nccc(Oc3ccc(NC(=O)c4c5c(cn(-c6ccc(F)cc6)c4=O)CCO5)cc3F)c2cc1NC(=O)CN1CCOCC1 [Example 53, N-(3-Fluoro-4-((7-methoxy-6-(2-morpholinoacetamido)quinolin-4-yl)oxy)phenyl)-5-(4-fluorophenyl)-6-oxo-2,3,5,6-tetrahydrofuro[3,2-c]pyridine-7-carboxamide]
0.83 nM	6 nM	O=C(Nc1ccc(Oc2ccnc3cc(OCCN4CCOCC4)c(F)cc23)c(F)c1)c1c2c(cn(-c3ccc(F)cc3)c1=O)CCO2 [Example 167, N-(3-Fluoro-4-((6-fluoro-7-(2-morpholinoethoxy)quinolin-4-yl)oxy)phenyl)-5-(4-fluorophenyl)-6-oxo-2,3,5,6-tetrahydrofuro[3,2-c]pyridine-7-carboxamide]
0.83 nM	6 nM	O=C(Nc1ccc(Oc2ccnc3ccc(OCCN4CCOCC4)cc23)c(F)c1)c1c2c(cn(-c3ccc(F)cc3)c1=O)CCO2 [Example 177, N-(3-Fluoro-4-((6-(2-morpholinoethoxy)quinolin-4-yl)oxy)phenyl)-5-(4-fluorophenyl)-6-oxo-2,3,5,6-tetrahydrofuro[3,2-c]pyridine-7-carboxamide]
0.78 nM	1 nM	COc1cc2c(Oc3ccc(NC(=O)c4c5c(cn(-c6ccccc6)c4=O)CCO5)cc3F)ccnc2cc1OCCN1CCOCC1 [Example 79, N-(3-Fluoro-4-((6-methoxy-7-(2-morpholinoethoxy)quinolin-4-yl)oxy)phenyl)-6-oxo-5-phenyl-2,3,5,6-tetrahydrofuro[3,2-c]pyridine-7-carboxamide]
0.58 nM	3 nM	N#Cc1cc2c(Oc3ccc(NC(=O)c4c5c(cn(-c6ccc(F)cc6)c4=O)CCO5)cc3F)ccnc2cc1OCCN1CCOCC1 [Example 173, N-(4-((6-Cyano-7-(2-morpholinoethoxy)quinolin-4-yl)oxy)-3-fluorophenyl)-5-(4-fluorophenyl)-6-oxo-2,3,5,6-tetrahydrofuro[3,2-c]pyridine-7-carboxamide]
0.55 nM	2 nM	CCNC(=O)c1cc2c(Oc3ccc(NC(=O)c4c5c(cn(-c6ccc(F)cc6)c4=O)CCO5)cc3F)ccnc2cc1OC [Example 51, N-(4-((6-(Ethylcarbamoyl)-7-methoxyquinolin-4-yl)oxy)-3-fluorophenyl)-5-(4-fluorophenyl)-6-oxo-2,3,5,6-tetrahydrofuro[3,2-c]pyridine-7-carboxamide]
0.5 nM	0.6 nM	Cn1cnc(-c2cc3nccc(Oc4ccc(NC(=O)c5c6c(cn(-c7ccccc7)c5=O)CCO6)cc4F)c3s2)c1 [Example 9, N-(3-Fluoro-4-((2-(1-methyl-1H-imidazol-4-yl)thieno[3,2-b]pyridin-7-yl)oxy)phenyl)-6-oxo-5-phenyl-2,3,5,6-tetrahydrofuro[3,2-c]pyridine-7-carboxamide]
0.45 nM	25 nM	O=C(Nc1ccc(Oc2ccnc3cc(OCCCN4CCOCC4)c(F)cc23)c(F)c1)c1c2c(cn(-c3ccc(F)cc3)c1=O)CCO2 [Example 168, N-(3-Fluoro-4-((6-fluoro-7-(3-morpholinopropoxy)quinolin-4-yl)oxy)phenyl)-5-(4-fluorophenyl)-6-oxo-2,3,5,6-tetrahydrofuro[3,2-c]pyridine-7-carboxamide]
0.45 nM	25 nM	O=C(Nc1ccc(Oc2ccnc3ccc(OCCCN4CCOCC4)cc23)c(F)c1)c1c2c(cn(-c3ccc(F)cc3)c1=O)CCO2 [Example 178, N-(3-Fluoro-4-((6-(3-morpholinopropoxy)quinolin-4-yl)oxy)phenyl)-5-(4-fluorophenyl)-6-oxo-2,3,5,6-tetrahydrofuro[3,2-c]pyridine-7-carboxamide]
0.35 nM	8 nM	O=C(Nc1ccc(Oc2ccnc3cc(-c4ccccn4)sc23)c(F)c1)c1c2c(cn(-c3ccccc3)c1=O)CCO2 [Example 4]
0.1 nM	2 nM	CNC(=O)c1cc2c(Oc3ccc(NC(=O)c4c5c(cn(-c6ccc(F)cc6)c4=O)CCO5)cc3F)ccnc2cc1OCCN1CCOCC1 [Example 163, N-(3-Fluoro-4-((6-(methylcarbamoyl)-7-(2-morpholinoethoxy)quinolin-4-yl)oxy)phenyl)-5-(4-fluorophenyl)-6-oxo-2,3,5,6-tetrahydrofuro[3,2-c]pyridine-7-carboxamide]
